Measured values taken from publication PMC3433420 (PLoS ONE, 2012).
Residues, ends and D or L forms follow the SMILES beside them.

Assays:
[1] = target: T1, PLCG1-NC tandem SH2 domains (Homo sapiens, UniProt P19174); assay: FP saturation binding assay; details: Protein PLCG1-NC; FP saturation binding, high-confidence ErbB interactions; mean over replicate hits
T1 construct: the tandem protein was included in our analysis with all internal amino acids linking the domains; 6X His; thioredoxin; made in house; host or cells: E. coli BL21(DE3)pLysS
T1 sequence (P19174 550-756 limits assumed): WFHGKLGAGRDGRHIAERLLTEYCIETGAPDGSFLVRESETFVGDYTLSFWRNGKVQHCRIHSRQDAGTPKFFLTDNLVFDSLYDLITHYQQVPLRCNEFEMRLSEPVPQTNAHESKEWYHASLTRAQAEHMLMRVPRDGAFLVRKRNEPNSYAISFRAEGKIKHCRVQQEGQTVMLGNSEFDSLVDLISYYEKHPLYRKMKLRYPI

GRAP2 SH2 domain = target: T2, GRAP2 SH2 domain (Homo sapiens, UniProt O75791); assay: FP saturation binding assay
T2 sequence (O75791 58-149 limits assumed): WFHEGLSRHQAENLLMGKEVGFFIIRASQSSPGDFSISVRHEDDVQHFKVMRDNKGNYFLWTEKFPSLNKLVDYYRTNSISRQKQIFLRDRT

HSH2D SH2 domain = target: T3, HSH2D SH2 domain (Homo sapiens, UniProt Q96JZ2); assay: FP saturation binding assay
T3 sequence (Q96JZ2 34-125 limits assumed): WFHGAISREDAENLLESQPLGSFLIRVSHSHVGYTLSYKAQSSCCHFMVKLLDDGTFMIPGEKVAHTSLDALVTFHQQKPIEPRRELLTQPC

SH2D1A SH2 domain = target: T4, SH2D1A SH2 domain (Homo sapiens, UniProt O60880); assay: FP saturation binding assay
T4 sequence (O60880 6-104 limits assumed): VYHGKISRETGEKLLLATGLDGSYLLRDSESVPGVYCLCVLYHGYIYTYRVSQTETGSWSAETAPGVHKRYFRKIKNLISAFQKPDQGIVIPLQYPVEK

SH2 and PTB domains [2] = target: T5, SH2 and PTB domains (Homo sapiens, UniProt P07947); assay: In-house protein microarrays (with or without 5 mM DTT), protein named per line; format: binding; details: protein YES1, array fabrication # 39336
T5 construct: thioredoxin; made in house; host or cells: BL21(DE3)pLysS E. coli
Experimental: (§1) 300 pL of purified recombinant proteins and a thioredoxin tag control were spotted at a concentration of ∼40 µM in duplicate onto aldehyde-coated microscope slides (Erie Scientific Company, Portsmouth, NH) using a Nano-Plotter (NP) 2.1/E noncontact microarrayer (GeSiM, Munich, Germany). 16 identical microarrays per slide were printed in a 2×8 (column by row) format with distances of 9 mm between individual arrays; each array consisted of a 14×14 configuration of spots 400 µm apart. Following printing at a constant humidity level of 50%, slides were desiccated overnight and stored at −80°C. For peptide probing, array slides were transferred to 96-well microplates (TeleChem International, Inc., Sunnyvale, CA) and sandwiched with silicone gaskets. Prior to peptide addition, aldehyde sites were quenched with buffer B (20 mM HEPES, 100 mM KCl, 0.1% Tween-20, 5 mM DTT, pH 7.8) containing 1% bovine serum albumin (BSA) (w/v) for one hour at room temperature; moderate agitation was applied in a plate shaker (IKA, Germany) to displace glycerol from the surface area of protein sample spots. […] The arrays were subsequently washed once with 300 µL of buffer B and once with 300 µL of ddH2O. Residual water was removed by centrifugation; slides were stored under desiccation in the dark until analysis.
(§2) Microarray slides were scanned at a resolution of 10 µm using a GenePix 4000B microarray scanner and analyzed using GenePix Pro v6.0 software (Molecular Devices, Sunnyvale, CA). To independently visualize protein spots irrespective of peptide binding, samples were printed simultaneously with 400 nM of Cyanine-5 (Cy5) labeled bovine serum albumin (BSA). […] Following spot layout identification via Cy5 labeled BSA, the mean fluorescence intensity of rhodamine for duplicate protein spots was quantified and normalized by subtracting the corresponding mean fluorescence intensity of thioredoxin. Normalized fluorescence values were then imported into MATLAB and KDs determined as previously described.

SH2 and PTB domains [3] = target: T6, SH2 and PTB domains (Homo sapiens, UniProt P16885); assay: as above; format: binding; details: protein PLCG2-NC, array fabrication # 39336
T6 construct: thioredoxin; made in house; host or cells: BL21(DE3)pLysS E. coli
T6 sequence (P16885 1-1265): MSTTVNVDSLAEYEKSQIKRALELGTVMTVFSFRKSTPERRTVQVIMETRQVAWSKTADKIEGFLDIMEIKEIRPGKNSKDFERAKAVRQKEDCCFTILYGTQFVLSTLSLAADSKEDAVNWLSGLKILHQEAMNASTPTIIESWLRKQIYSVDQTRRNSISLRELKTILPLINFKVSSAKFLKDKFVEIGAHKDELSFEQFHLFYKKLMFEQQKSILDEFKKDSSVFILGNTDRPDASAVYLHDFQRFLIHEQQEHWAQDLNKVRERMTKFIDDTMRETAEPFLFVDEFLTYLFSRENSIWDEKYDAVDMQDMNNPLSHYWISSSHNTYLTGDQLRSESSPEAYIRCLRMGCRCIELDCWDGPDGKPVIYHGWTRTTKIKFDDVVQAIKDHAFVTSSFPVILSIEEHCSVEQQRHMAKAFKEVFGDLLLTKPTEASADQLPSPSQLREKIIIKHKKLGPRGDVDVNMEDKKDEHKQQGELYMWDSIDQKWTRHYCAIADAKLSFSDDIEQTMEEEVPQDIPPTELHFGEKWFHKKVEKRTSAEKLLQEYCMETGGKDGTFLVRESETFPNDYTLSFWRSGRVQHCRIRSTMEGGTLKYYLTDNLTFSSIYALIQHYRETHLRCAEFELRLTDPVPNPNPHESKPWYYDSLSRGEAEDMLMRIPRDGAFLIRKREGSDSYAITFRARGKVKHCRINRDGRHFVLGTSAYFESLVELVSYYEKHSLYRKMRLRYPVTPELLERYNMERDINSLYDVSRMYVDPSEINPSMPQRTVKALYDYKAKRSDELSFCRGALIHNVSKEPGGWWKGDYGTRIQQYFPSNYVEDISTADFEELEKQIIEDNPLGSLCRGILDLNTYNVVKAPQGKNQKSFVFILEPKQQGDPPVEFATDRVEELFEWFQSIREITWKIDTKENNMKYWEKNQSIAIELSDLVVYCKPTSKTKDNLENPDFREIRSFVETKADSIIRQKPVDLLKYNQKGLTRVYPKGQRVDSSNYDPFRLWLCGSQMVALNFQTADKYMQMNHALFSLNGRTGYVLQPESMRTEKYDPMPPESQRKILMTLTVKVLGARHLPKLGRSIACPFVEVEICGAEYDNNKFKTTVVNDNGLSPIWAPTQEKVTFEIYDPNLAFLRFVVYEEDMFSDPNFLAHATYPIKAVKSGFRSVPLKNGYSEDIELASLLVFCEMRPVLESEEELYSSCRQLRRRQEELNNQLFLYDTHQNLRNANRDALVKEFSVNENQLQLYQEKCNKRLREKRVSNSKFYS
Experimental: as §1, §2

SH2 and PTB domains [4] = target: T7, SH2 and PTB domains (Homo sapiens, UniProt P42684); assay: as above; format: binding; details: protein ABL2, array fabrication # 39336
T7 construct: thioredoxin; made in house; host or cells: BL21(DE3)pLysS E. coli
Experimental: as §1, §2

SH2 and PTB domains [5] = target: T8, SH2 and PTB domains (Homo sapiens, UniProt P43405); assay: as above; format: binding; details: protein SYK-NC, array fabrication # 39336
T8 construct: thioredoxin; made in house; host or cells: BL21(DE3)pLysS E. coli
Experimental: as §1, §2

SH2 and PTB domains [6] = target: T9, SH2 and PTB domains (Homo sapiens, UniProt P51451); assay: as above; format: binding; details: protein BLK, array fabrication # 39336
T9 construct: thioredoxin; made in house; host or cells: BL21(DE3)pLysS E. coli
Experimental: as §1, §2

SH2 and PTB domains [7] = target: T10, SH2 and PTB domains (Homo sapiens, UniProt P78314); assay: as above; format: binding; details: protein SH3BP2, array fabrication # 39336
T10 construct: thioredoxin; made in house; host or cells: BL21(DE3)pLysS E. coli
T10 sequence (P78314 1-561): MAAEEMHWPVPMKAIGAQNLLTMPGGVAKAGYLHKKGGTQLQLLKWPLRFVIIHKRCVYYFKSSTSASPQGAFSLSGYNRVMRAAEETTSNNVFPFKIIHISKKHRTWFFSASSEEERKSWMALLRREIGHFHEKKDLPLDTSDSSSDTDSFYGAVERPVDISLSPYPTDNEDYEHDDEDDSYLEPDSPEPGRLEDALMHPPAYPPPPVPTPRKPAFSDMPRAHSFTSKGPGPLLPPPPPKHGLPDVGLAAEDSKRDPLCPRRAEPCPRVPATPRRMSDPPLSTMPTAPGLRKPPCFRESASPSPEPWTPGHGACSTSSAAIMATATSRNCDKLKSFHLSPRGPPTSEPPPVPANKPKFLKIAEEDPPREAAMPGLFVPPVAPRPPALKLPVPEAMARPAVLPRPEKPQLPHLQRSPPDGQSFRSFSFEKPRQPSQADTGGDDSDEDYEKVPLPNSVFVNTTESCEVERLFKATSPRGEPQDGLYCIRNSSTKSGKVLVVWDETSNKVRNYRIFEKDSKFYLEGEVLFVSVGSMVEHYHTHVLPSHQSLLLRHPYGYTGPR
Experimental: as §1, §2

PTK6 SH2 domain = target: T11, PTK6 SH2 domain (Homo sapiens, UniProt Q13882); assay: FP saturation binding assay; details: protein PTK6; FP, high-confidence ErbB interactions; mean of replicate hits
T11 construct: from the PTK6 SH2 domain; 6X His; thioredoxin; made in house; host or cells: E. coli BL21(DE3)pLysS
Outline: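 Rhodamine-labeled peptides (10 nM final) were titrated with 12 SH2 domain concentrations (0.002–10 µM) in 20 mM HEPES, 100 mM KCl, 0.1% Tween-20, 5 mM DTT, pH 7.8. After 20 min at room temperature in the dark, FP (ex 530/em 555 nm) was read. KDs came from nonlinear least-squares fits.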

T7 sequence (P42684 whole entry, the tested form may be a part): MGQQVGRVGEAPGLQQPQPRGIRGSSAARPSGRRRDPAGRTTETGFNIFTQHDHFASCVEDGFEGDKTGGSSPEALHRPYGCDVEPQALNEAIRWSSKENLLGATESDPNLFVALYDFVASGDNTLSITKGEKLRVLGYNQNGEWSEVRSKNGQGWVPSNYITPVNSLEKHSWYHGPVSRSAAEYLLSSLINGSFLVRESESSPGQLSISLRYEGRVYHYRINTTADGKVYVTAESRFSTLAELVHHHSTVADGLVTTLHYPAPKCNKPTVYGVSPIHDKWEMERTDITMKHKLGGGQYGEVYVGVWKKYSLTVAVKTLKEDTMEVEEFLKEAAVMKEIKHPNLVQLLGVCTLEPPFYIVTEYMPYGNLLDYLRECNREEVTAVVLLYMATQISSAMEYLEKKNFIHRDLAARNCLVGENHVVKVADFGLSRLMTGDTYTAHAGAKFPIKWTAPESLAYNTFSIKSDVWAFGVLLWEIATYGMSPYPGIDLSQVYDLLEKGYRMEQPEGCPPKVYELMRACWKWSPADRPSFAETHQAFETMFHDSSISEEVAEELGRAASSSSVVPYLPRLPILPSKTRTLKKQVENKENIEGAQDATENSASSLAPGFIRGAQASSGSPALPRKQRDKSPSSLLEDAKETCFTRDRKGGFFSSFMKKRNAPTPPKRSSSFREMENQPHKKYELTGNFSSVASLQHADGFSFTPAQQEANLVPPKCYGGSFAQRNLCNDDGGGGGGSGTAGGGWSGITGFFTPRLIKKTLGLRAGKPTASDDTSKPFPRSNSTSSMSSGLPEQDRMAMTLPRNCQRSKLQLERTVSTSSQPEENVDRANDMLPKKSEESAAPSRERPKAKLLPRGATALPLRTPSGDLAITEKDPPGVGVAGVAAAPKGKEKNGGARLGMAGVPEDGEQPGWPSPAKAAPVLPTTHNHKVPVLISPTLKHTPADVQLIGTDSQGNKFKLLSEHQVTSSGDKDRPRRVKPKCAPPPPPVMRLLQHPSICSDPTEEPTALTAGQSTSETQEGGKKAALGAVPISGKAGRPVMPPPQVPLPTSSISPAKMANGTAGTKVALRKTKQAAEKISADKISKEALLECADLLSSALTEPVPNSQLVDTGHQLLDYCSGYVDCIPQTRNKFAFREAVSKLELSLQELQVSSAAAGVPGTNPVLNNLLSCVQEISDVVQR
T9 sequence (P51451 whole entry, the tested form may be a part): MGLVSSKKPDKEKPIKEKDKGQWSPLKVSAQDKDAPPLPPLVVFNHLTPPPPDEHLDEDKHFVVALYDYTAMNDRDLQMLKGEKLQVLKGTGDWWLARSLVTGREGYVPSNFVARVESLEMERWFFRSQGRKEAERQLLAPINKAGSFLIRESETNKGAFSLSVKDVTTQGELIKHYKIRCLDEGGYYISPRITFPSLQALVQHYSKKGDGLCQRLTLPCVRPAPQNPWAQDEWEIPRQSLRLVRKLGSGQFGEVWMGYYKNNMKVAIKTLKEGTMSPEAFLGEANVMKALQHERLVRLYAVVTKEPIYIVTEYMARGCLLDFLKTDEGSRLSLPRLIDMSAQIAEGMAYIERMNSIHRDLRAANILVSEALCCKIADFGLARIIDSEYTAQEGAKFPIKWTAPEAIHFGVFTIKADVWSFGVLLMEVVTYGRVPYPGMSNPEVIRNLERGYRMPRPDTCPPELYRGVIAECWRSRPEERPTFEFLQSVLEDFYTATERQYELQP
T5 sequence (P07947 whole entry, the tested form may be a part): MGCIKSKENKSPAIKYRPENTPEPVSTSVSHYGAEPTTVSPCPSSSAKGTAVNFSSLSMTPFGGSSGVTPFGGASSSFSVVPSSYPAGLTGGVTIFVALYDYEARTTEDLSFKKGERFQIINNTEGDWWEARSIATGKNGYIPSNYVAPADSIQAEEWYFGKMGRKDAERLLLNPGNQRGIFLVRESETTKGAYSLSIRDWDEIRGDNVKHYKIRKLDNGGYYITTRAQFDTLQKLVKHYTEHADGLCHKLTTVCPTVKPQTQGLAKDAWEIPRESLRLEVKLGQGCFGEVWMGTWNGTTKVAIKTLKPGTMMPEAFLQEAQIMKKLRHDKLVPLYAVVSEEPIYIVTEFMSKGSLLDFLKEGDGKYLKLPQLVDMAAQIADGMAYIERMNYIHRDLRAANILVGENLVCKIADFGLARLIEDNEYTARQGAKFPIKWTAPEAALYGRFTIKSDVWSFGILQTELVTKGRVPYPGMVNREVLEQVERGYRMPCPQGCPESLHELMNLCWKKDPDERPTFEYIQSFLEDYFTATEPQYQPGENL
T11 sequence (Q13882 78-170 limits assumed): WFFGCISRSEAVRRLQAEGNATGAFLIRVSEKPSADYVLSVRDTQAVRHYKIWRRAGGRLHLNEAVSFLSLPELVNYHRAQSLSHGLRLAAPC

Q: How did the Kd [1] turn out when `CC(C)C[C@H](NC(=O)[C@H](Cc1ccc(OP(=O)(O)O)cc1)NC(=O)[C@H](CCC(=O)O)NC(=O)[C@@H]1CCCN1C(=O)[C@H](CC(N)=O)NC(=O)CN)C(=O)N[C@@H](CC(N)=O)C(=O)N[C@H](C(=O)N[C@H](C(=O)N[C@@H](CCC(N)=O)C(=O)N1CCC[C@H]1C(=O)N[C@H](C(=O)N[C@@H](CC(=O)O)C(=O)O)[C@@H](C)O)C(C)C)[C@@H](C)O` [ErbB1 1138 13-mer] (HELM PEPTIDE1{G.N.P.E.[O=C([C@H](Cc1ccc(OP(=O)(O)O)cc1)N[*:1])[*:2]].L.N.T.V.Q.P.T.D}$$$$V2.0) was run?
A: Its Kd is 5.35 µM.

Q: And the Kd (GRAP2 SH2 domain)?
A: Its Kd is 4.82 µM.

Q: And the Kd (HSH2D SH2 domain)?
A: The Kd was 3.41 µM.

Q: What about the Kd (SH2D1A SH2 domain) of the same compound?
A: Its Kd is 9.44 µM.

Q: Which “Kd” value (SH2 and PTB domains [2]; PM assay replicate # 39341) does the source give for `CC(C)C[C@H](NC(=O)[C@@H](NC(=O)[C@@H](NC(=O)CNC(=O)[C@@H]1CCCN1)[C@@H](C)O)C(C)C)C(=O)N1CCC[C@H]1C(=O)N1CCC[C@H]1C(=O)N1CCC[C@H]1C(=O)N1CCC[C@H]1C(=O)N[C@@H](Cc1ccc(OP(=O)(O)O)cc1)C(=O)N[C@@H](CCCNC(=N)N)C(=O)N[C@@H](Cc1c[nH]cn1)C(=O)N[C@@H](CCCNC(=N)N)C(=O)N[C@@H](CC(N)=O)C(=O)N[C@H](C(=O)N[C@H](C(=O)N[C@H](C(=O)N[C@@H](CC(=O)O)C(=O)O)C(C)C)C(C)C)[C@@H](C)O` [ErbB4 pY1301 (18-mer)] (HELM PEPTIDE1{P.G.T.V.L.P.P.P.P.[O=C([C@H](Cc1ccc(OP(=O)(O)O)cc1)N[*:1])[*:2]].R.H.R.N.T.V.V.D}$$$$V2.0) here?
A: Its value is 1.37 µM.

Q: And the “Kd” value (SH2 and PTB domains [2]; PM assay replicate # 39342)?
A: Its value is 4.86 µM.

Q: What about the “Kd” value (SH2 and PTB domains [3]; PM assay replicate # 39341) of the same compound?
A: The value was 0.81 µM.

Q: What about the “Kd” value (SH2 and PTB domains [3]; PM assay replicate # 39342) of the same compound?
A: Its value is 8.37 µM.

Q: And the “Kd” value (SH2 and PTB domains [4]; PM assay replicate # 39341)?
A: Its value is 1.03 µM.

Q: What about the “Kd” value (SH2 and PTB domains [4]; PM assay replicate # 39342) of the same compound?
A: Its value is 0.00068 µM.

Q: What about the “Kd” value (SH2 and PTB domains [5]; PM assay replicate # 39341) of the same compound?
A: The value was 0.80 µM.

Q: What about the “Kd” value (SH2 and PTB domains [5]; PM assay replicate # 39342) of the same compound?
A: Its value is 1.17 µM.

Q: What about the “Kd” value (SH2 and PTB domains [6]; PM assay replicate # 39341) of the same compound?
A: Its value is 1.18 µM.

Q: And the “Kd” value (SH2 and PTB domains [6]; PM assay replicate # 39342)?
A: Its value is 1.60 µM.

Q: And the “Kd” value (SH2 and PTB domains [7]; PM assay replicate # 39341)?
A: Its value is 1.18 µM.

Q: And the “Kd” value (SH2 and PTB domains [7]; PM assay replicate # 39342)?
A: The value was 1.61 µM.

Q: For `C[C@H](NC(=O)[C@H](CC(N)=O)NC(=O)[C@H](Cc1c[nH]cn1)NC(=O)[C@H](Cc1ccc(OP(=O)(O)O)cc1)NC(=O)[C@H](CCC(=O)O)NC(=O)[C@@H]1CCCN1C(=O)[C@H](CC(N)=O)NC(=O)[C@@H](N)CC(=O)O)C(=O)N[C@@H](CO)C(=O)N[C@@H](CC(N)=O)C(=O)NCC(=O)N1CCC[C@H]1C(=O)N[C@@H](CC(=O)O)C(=O)O` [ErbB4 1188 13-mer] (HELM PEPTIDE1{D.N.P.E.[O=C([C@H](Cc1ccc(OP(=O)(O)O)cc1)N[*:1])[*:2]].H.N.A.S.N.G.P.D}$$$$V2.0), which Kd (PTK6 SH2 domain) is on record?
A: The Kd was 9.42 µM.

Q: What about the Kd (HSH2D SH2 domain) of the same compound?
A: Its Kd is 3.05 µM.
